Data: patent US20220249463A1, “METHODS OF ALTERING CARDIAC REMODELING USING COMPOUNDS THAT PROMOTE GLUCOSE OXIDATION” (IMBRIA PHARMACEUTICALS, INC., priority 2019, published 2022)

Assays:
TAC mice [1] = assay: TAC mice, six weeks treatment: heart weight and heart weight/body weight; format: in vivo; conditions: 6 weeks
[2] = Stability of CV-8972 forms in solvents, X-ray powder diffraction; format: physicochemical
Protocol: Samples from batch 289-MBA-15-A (containing form B) were added to various solvents, incubated under various conditions, and analyzed by X-ray powder diffraction.
Samples from batch 289-MBA-16 (containing forms A and B) were added to various solvents, incubated under various conditions, and analyzed by X-ray powder diffraction.
Samples from batch S-18-0030513 (containing form A) were added to various solvents, incubated under various conditions, and analyzed by X-ray powder diffraction.

TAC mice [3] = assay: TAC mice: echocardiography; format: in vivo
TAC mice [4] = assay: TAC mice: cardiac fibrosis, Masson's trichrome; format: in vivo; conditions: end of 6-week experiment

## COc1ccc(CN2CCN(CCOC(=O)c3cccnc3)CC2)c(OC)c1OC [CV-8972, 2-(4-(2,3,4-trimethoxybenzyl)piperazin-1-yl)ethyl nicotinate]
TAC mice [1]; TMZ 6, NA 2.4, CV-8814 7.5, CV-8972 10 mg/kg/day
  cardiac remodeling in TAC mice (in words): effectively inhibited cardiac remodeling
TAC mice [1]; TAC mice, TMZ 6, CV-8814 7.5, CV-8972 10 mg/kg/day, osmotic minipump
  cardiac mass: 225 ± 11 mg
TAC mice [1]; TAC mice, TMZ 6, NA 2.4, CV-8814 7.5, CV-8972 10 mg/kg/day, subcutaneous osmotic minipump
  heart weight to body weight ratio: 7.4 ± 0.3 mg/g
[2]; batch 289-MBA-15-A (containing form B), ACN/H2O (90:10) Aw = 0.83, Slurry, RT, 5 d
  XRPD results: Form A
[2]; batch 289-MBA-15-A (containing form B), Acetone/H2O (90:10) Aw = 0.72, Slurry, RT, 5 d
  XRPD results: Form A
[2]; batch 289-MBA-15-A (containing form B), EtOAc/H2O (97:3) Aw = 0.94, Slurry, RT, 5 d
  XRPD results: Form A
[2]; batch 289-MBA-15-A (containing form B), EtOAc, Slurry, RT, 5 d
  XRPD results: Form A + Form B
[2]; batch 289-MBA-15-A (containing form B), EtOH/H2O (90:10) Aw = 0.52, Slurry, RT, 5 d
  XRPD results: Form A
[2]; batch 289-MBA-15-A (containing form B), EtOH, CC from 60° C.
  XRPD results: Form C + minor Form A
[2]; batch 289-MBA-15-A (containing form B), EtOH, Slurry, RT, 3 d
  XRPD results: Form A + Form B
[2]; batch 289-MBA-15-A (containing form B), IPA/H2O (90:10) Aw = 0.67, Slurry, RT, 5 d
  XRPD results: Form A
[2]; batch 289-MBA-15-A (containing form B), IPA/H2O (98:2) Aw = 0.26, Slurry, RT, 5 d
  XRPD results: Form A
[2]; batch 289-MBA-15-A (containing form B), MEK, Slurry, RT, 5 d
  XRPD results: Form A
[2]; batch 289-MBA-15-A (containing form B), MeOH/H2O (80:20) Aw = 0.48, Slurry, RT, 5 d
  XRPD results: Form A
[2]; batch 289-MBA-15-A (containing form B), MeOH/H2O (95:5) Aw = 0.16, Slurry, RT, 5 d
  XRPD results: Form A
[2]; batch 289-MBA-15-A (containing form B), MeOH, Slurry, RT, 5 d
  XRPD results: Form A + Form B
[2]; batch 289-MBA-15-A (containing form B), no solvent, 100° C., 20 minutes, result wraps over r24-r26: Form B, shifted with minor Form A
  XRPD results: Form B,
[2]; batch 289-MBA-16 (containing forms A and B), EtOAc, Attempted to dissolve at ~60° C., solids remained, cooled slowly to RT, let stir at RT from 60° C. (Table 60)
  XRPD results: Form A + Form B
[2]; batch 289-MBA-16 (containing forms A and B), EtOAc, SC from 60° C. (Table 63)
  XRPD results: Form A + Form B
[2]; batch 289-MBA-16 (containing forms A and B), EtOH, SC from 60° C.
  XRPD results: Form A + Form C
[2]; batch 289-MBA-16 (containing forms A and B), EtOH, Slurry, RT, 3 d (Table 60)
  XRPD results: Form A + Form B
[2]; batch 289-MBA-16 (containing forms A and B), EtOH, Slurry, RT, 3 d (Table 63)
  XRPD results: Form A + Form B
[2]; batch 289-MBA-16 (containing forms A and B), MeOH/H2O (95:5), Slurry, overnight, 1 g scale
  XRPD results: Form A
[2]; batch 289-MBA-16 (containing forms A and B), MeOH, VD w/ MTBE (Table 63)
  XRPD results: Form A
[2]; batch 289-MBA-16 (containing forms A and B), MeOH, Vapor diffusion w/ MTBE (Table 60)
  XRPD results: Form A
[2]; batch 289-MBA-16 (containing forms A and B), THF, SC from 60° C.
  XRPD results: Form B
[2]; batch S-18-0030513 (containing form A), CHCl3, Slurry, RT
  XRPD results: Form A
[2]; batch S-18-0030513 (containing form A), EtOAc, Slurry, RT
  XRPD results: Form A
[2]; batch S-18-0030513 (containing form A), EtOH, Crash cool from 70° C.
  XRPD results: Form A + Form C
[2]; batch S-18-0030513 (containing form A), MEK/H2O 99:1, Slow cool from 70° C.
  XRPD results: Form A
[2]; batch S-18-0030513 (containing form A), THF, Slurry, RT
  XRPD results: Form A
[2]; batch S-18-0030513 (containing form A), no solvent, 80° C., 20 minutes
  XRPD results: Form A with slight peak shifting
[2]; batch S-18-0030513 (containing form A), no solvent, 97% RH Stress of Form A dried at 80° C. for 20 min
  XRPD results: Form A
[2]; batch S-18-0030513 (containing form A), no solvent, 100° C., 20 minutes
  XRPD results: Form B + Form A, shifted
[2]; batch S-18-0030513 (containing form A), no solvent, VO, RT
  XRPD results: Form A
TAC mice [3]; 3-weeks after TAC
  EF (in words): significantly increased
  IVRT: 32 ± 1 ms
  IVSd: 1.29±0.04 mm
  LV mass: 154 ± 8 mg
TAC mice [3]; 3-weeks after TAC, CV-8814 7.5, CV-8972 10 mg/kg/day
  left ventricular FS: 47%±3%
TAC mice [3]; 6-weeks after TAC
  IVRT: 31 ± 2 ms
  IVSd: 1.26±0.04 mm
  LV mass: 156 ± 10 mg
TAC mice [3]; 6-weeks after TAC (end of the experiment)
  left ventricular FS: 46%±3%
TAC mice [3]; conclusion, 6 weeks treatment
  cardiac functions in TAC mice (in words): improved cardiac functions
TAC mice [3]; to the end of the study (6 weeks)
  EF (in words): protective effect was sustained to the end of the study
TAC mice [4]
  cardiac fibrosis (fibrotic area to whole heart tissue area): 6.6±0.6%
